Data reported in ChEMBL document CHEMBL1128774, “Substrate specificity of farnesyl diphosphate synthase from Bacillus stearothermophilus” (Bioorg Med Chem Lett, 1995).
Calls of active or inactive are those of the source. The calls are words filed in the database; no cut-off is given here.

Assays:
[1] = test system: Farnesyl diphosphate synthase (Geobacillus stearothermophilus); experiment: Compound was tested for apparent Km values of Farnesyl diphosphate synthase from Bacteria; Active
[2] = test system: Farnesyl diphosphate synthase (Sus scrofa); experiment: Compound was tested for apparent Km values of Farnesyl diphosphate synthase from Pig liver; Active

`C/C(=C\COP(=O)(O)OP(=O)(O)O)CCCO` was tested, and the Activity [1] was “Active” and the Activity [2] was “Active”.
